How the values were obtained:
EGFR = target: T1, EGFR (Homo sapiens, UniProt P00533); test: Assay for modulation of EGFR activity (ELISA); type: biochemical; details: read-out: bio EGFR IC50
T1 construct: A431 […] cell lysate is stored at −80° C; host or cells: A431 cell lysate

PDGFR = target: T2, PDGFR (Homo sapiens, UniProt P09619); test: Assay for modulation of PDGFR activity (ELISA); type: biochemical; details: read-out: bio PDGFR IC50
T2 construct: expressed in transfected cells; host or cells: NIH3T3
Experimental: Using the following reagents, supplies, and methods, the ability of the compounds of the invention to modulate the in vitro activity of the PDGFR can be readily determined in an enzyme-linked immunosorbent assay (ELISA).
Monoclonal anti-PDGFR antibody (28D4C10) is stored at −20° C. in 50 mL tubes prior to use.
Lysates from PDGFR-β expressing NIH3T3 cells are obtained and stored at −80° C. in 1 mL aliquots. PDGFR-β expression in eukaryotic cells is well known in the art. Lysates are prepared by the following method. Place carrier dishes in ice trays, and after cooling, remove the media and replace with ice cold PBS. Remove the PBS and repeat. […] Take up lysate with a pipettor and add to a 30 mL centrifuge tube on ice. Vortex the tubes for 30-60 seconds and then centrifuge for 10 minutes at 7000 rpm in a J-20 rotor which has been precooled to below 0° C. Recover the supernatants and combine them in a 250 mL tube and place on ice. Perform protein determination to measure the total quantity of protein per mL of solution. Aliquot the lysate into 1 mL fractions and store at −80° C.
Coat Corning 96 well ELISA plates with 0.5 μg per well 28D4C10 antibody in a volume of 100 μl PBS overnight, at 4° C. and remove unbound antibody, 28D4C10, from wells by inverting plate to remove liquid. Wash 1× with distilled H2O by filling wells. Pat the plate on a paper towel to remove excess liquid.
Add 150 μL of Blocking Buffer to each well. Incubate for 30 minutes at room temperature, with shaking and wash plate 3× with deionized water, then once with TBST. Pat plate on a paper towel to remove excess liquid and bubbles
Dilute lysate in PBS (10 mg lysate/100 μL PBS). Add 100 μL of diluted lysate to each well. Shake at room temperature for 60 min. Wash plate 3× with deionized water, then once with TBST. Pat plate on a paper towel to remove excess liquid and bubbles.
Add 80 μL Kinase Buffer to ELISA plate containing captured PDGFR.
Dilute drugs/extracts 1:10 (unless specified otherwise) in TBS+10% DMSO in 96-well polypropylene plates. (i.e., 10 μL compound+90 μL (TBS+10% DMSO)). Add 10 μL diluted drugs/extracts to ELISA plate. […] Incubate for 30 minutes while shaking at room temperature.
After 30 minutes stop reaction with addition of 10 μL of 200 mM EDTA pH 8.0 for 20 mM final in well. Wash 4× with deionized water, twice with TBST.
Incubate 30-45 minutes at room temperature, with shaking. Wash plate 3× with deionized water, then once with TBST. Pat plate on a paper towel to remove excess liquid and bubbles.
Incubate 30 minutes at room temperature with shaking. Wash plate 3× with deionized water, then once with TBST. Pat plate on a paper towel to remove excess liquid and bubbles.
Add 100 μL of ABTS/H2O2 solution to each well. Incubate 10 to 30 minutes while shaking. Remove any bubbles. If necessary stop reaction with the addition of 100 μL of 0.2M HCl per well
Read assay on Dynatech MR7000 ELISA reader.

T1 sequence (P00533 25-1210): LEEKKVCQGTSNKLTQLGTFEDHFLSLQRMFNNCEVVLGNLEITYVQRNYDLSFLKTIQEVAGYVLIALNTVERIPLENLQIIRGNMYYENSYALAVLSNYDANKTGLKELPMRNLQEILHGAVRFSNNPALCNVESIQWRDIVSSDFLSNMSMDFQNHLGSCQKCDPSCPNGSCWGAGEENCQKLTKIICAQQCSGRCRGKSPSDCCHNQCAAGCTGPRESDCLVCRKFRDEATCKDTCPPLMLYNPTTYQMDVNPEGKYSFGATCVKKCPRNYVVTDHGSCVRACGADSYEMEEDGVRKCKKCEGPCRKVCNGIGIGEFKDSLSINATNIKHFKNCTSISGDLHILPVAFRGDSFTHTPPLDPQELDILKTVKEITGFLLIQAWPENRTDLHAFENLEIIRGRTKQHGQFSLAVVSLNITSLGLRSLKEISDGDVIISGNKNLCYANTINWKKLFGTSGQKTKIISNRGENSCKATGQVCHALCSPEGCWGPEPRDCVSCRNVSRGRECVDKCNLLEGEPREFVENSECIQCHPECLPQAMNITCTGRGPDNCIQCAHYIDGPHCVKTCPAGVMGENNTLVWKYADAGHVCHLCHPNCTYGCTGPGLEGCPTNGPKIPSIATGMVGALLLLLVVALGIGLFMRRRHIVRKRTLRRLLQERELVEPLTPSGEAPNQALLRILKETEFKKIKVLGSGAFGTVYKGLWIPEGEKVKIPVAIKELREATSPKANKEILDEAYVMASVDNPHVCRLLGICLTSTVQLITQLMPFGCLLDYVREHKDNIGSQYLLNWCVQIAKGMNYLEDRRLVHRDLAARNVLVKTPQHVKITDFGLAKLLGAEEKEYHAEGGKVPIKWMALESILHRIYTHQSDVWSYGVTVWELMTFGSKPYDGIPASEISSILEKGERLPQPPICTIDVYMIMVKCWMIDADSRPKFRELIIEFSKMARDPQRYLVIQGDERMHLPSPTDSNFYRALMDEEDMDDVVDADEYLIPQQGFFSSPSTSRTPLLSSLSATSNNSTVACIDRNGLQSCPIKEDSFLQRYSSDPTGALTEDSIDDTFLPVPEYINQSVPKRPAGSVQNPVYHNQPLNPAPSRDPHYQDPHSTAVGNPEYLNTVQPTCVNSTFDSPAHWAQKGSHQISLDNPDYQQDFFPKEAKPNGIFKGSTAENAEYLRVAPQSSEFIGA
T2 sequence (P09619 33-1106, species assumed): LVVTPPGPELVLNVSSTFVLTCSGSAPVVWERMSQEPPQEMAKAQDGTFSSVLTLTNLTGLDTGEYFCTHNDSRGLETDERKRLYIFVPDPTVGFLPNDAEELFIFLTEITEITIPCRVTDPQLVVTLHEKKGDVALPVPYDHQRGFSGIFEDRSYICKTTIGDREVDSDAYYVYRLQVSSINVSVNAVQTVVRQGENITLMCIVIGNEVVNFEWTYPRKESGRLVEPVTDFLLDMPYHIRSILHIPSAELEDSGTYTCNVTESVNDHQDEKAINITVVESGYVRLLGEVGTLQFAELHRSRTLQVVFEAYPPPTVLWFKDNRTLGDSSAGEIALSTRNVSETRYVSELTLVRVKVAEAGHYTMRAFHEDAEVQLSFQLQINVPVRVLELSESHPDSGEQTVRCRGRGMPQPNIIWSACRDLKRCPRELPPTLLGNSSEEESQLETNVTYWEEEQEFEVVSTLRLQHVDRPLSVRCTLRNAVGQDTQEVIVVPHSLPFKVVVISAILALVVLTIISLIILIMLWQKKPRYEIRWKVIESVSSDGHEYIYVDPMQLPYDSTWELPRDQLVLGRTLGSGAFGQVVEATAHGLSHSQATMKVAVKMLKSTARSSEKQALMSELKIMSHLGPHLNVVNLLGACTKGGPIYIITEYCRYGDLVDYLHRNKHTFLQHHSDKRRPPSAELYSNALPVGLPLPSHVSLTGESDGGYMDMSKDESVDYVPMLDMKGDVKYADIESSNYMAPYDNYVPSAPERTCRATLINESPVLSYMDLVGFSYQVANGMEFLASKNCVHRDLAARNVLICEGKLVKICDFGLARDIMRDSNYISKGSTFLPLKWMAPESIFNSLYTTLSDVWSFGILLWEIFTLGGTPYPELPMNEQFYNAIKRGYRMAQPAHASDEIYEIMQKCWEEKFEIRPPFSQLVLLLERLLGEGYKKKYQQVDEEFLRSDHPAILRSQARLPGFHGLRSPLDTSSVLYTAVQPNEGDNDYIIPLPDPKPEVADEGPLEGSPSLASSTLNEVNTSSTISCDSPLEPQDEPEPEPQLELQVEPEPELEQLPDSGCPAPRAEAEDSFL

IC50 (EGFR): > 20 µM
IC50 (PDGFR): > 100 µM
Compound: Cc1cc(C(=O)NCCN2CCOCC2)[nH]c1C=C1C(=O)Nc2ncnc(N3CCN(C)CC3)c21 [Formula 10, 4-METHYL-5-[4-(4-METHYL-PIPERAZIN-1-YL)-6-OXO-6,7-DIHYDRO-PYRROLO[2,3-D]PYRIMIDIN-5-YLIDENEMETHYL]-1H-PYRROLE-2-CARBOXYLIC ACID (2-MORPHOLIN-4-YL-ETHYL)-AMIDE]
